The results in this text go back to patent US20250213701A1, “MEDICAMENT FOR TREATING HUMAN TUMOR BASED ON ERF3A-TARGETING PROTEOLYSIS MECHANISM” (SUZHOU DEGEN BIO-MEDICAL CO., LTD., priority 2022, published 2025).

Holding throughout (format): cell-based, human
One experiment has as its system PC-3 cells. As to the kind of experiment: Anti-proliferative toxicity against prostate cancer cell line PC-3 (CCK8). The settings on record: Homo sapiens, 72 h, 3 days. On the procedure:
(§1) Example 82: Detection of Anti-Proliferative Toxicity Against Prostate Cancer Cell Lines Vcap, 22Rv1, and PC-3
PC-3 cells (purchased from the Cell Bank of the Chinese Academy of Sciences, Cat. No. SCSP-532) were subcultured in a culture medium (F12K medium+1% penicillin-streptomycin dual-antibiotic solution+10% fetal bovine serum) in an incubator at 5% carbon dioxide and 37° C.
PC-3 cells were seeded at 4000 cells/well (90 μL) on a 96-well plate and cultured for 24 h.
(§2) 10 mM compound stock solutions were prepared in DMSO.
(§3) For 22Rv1 cells and PC-3 cells, the compound stock solution was diluted with DMSO to give DMSO solutions 11-19 at concentrations of 0 μM, 500 μM, 100 μM, 20 μM, 4 μM, 0.8 μM, 0.16 μM, 0.032 μM, 0.0064 μM.
For PC-3 cells, 2 μL of each of the above solutions 11-19 was added to 98 μL of PC-3 medium to give mixed solutions 39-47 of the compound and the medium.
(§4) For 22Rv1 and PC-3 cells, 10 μL of each of the above solutions 30-38 or 39-47 was added to the above cell seed solution to give a total volume of 100 μL (90 μL+10 μL), where the concentrations of the compound in wells were 0 μM, 1.0 μM, 0.2 μM, 0.04 μM, 0.008 μM, 0.0016 μM, 0.00032 μM, 0.00006 μM, and 0.00001 μM. All concentrations were in triplicate.
(§5) After the above-treated cells were cultured for 3 days, 10 μL of the CCK8 solution (DOJINDO, Cat. No. PF725) was added to each well. The plate was incubated in an incubator at 37° C. for 1-4 h and then detected on a microplate reader for the reading at 450 nm.

The test system of another experiment is VCaP cells. As to the kind of experiment: Anti-proliferative toxicity against prostate cancer cell line Vcap (CCK8). The settings on record: 3 days; for IC50: Homo sapiens, 72 h, CCK8. On the procedure: as §1
(§6) Vcap cells (purchased from the Cell Bank of the Chinese Academy of Sciences, Cat. No. SCSP-5034) were subcultured in a culture medium (DMEM medium+1% penicillin-streptomycin dual-antibiotic solution+10% fetal bovine serum) in an incubator at 5% carbon dioxide and 37° C. 22Rv1 cells (purchased from the Cell Bank of the Chinese Academy of Sciences, Cat. No. TCHu100) were subcultured in a culture medium (RPMI-1640 medium+1% penicillin-streptomycin dual-antibiotic solution+10% fetal bovine serum) in an incubator at 5% carbon dioxide and 37° C.
VCap cells were seeded at 20000 cells/well (90 μL) on a 96-well plate and cultured for 72 h. The original medium was removed, and a new medium of 90 μL was added.
as §2
For VCap cells, the compound stock solution was diluted with DMSO to give DMSO solutions 1-10 at concentrations of 0 μM, 80 μM, 16 μM, 3.2 μM, 1.5 μM, 0.5 μM, 0.15 μM, 0.05 μM, 0.025 μM, and 0.0005 μM.
For Vcap cells, 2 μL of each of the above solutions 1-10 was added to 98 μL of Vcap medium to give mixed solutions 20-29 of the compound and the medium.
For Vcap cells, 10 μL of each of the above solutions 20-29 was added to the above cell seed solution to give a total volume of 100 μL (90 μL+10 μL), where the concentrations of the compound in wells were 0 μM, 0.16 μM, 0.032 μM, 0.006 μM, 0.003 μM, 0.001 μM, 0.0003 μM, 0.0001 μM, 0.00005 μM, and 0.00001 μM. All concentrations were in triplicate.
as §5

A further experiment concerns 22Rv1 cells. Nature of the experiment: Anti-proliferative toxicity against prostate cancer cell line 22Rv1 (CCK8). The settings on record: 3 days; for IC50: Homo sapiens, 72 h, CCK8. On the procedure:
as §1, §6
22Rv1 cells were seeded at 5000 cells/well (90 μL) on a 96-well plate and cultured for 48 h.
as §2, §3
For 22Rv1 cells, 2 μL of each of the above solutions 11-19 was added to 98 μL of 22Rv1 medium to give mixed solutions 30-38 of the compound and the medium.
as §4, §5

Some results are limits rather than exact numbers.

For `C[C@]12C=CC(=O)N[C@@H]1CC[C@@H]1[C@@H]2CC[C@]2(C)[C@@H](C(=O)Nc3cccc(N[C@@H]4CCC[C@@H](Nc5cccc6c5CN(C5CCC(=O)NC5=O)C6=O)C4)c3)CC[C@@H]12` (stereo partly drawn) [C62, N-(3-(N—(N-(4-(2-(3-(2,6-dioxopiperidine))-1-oxo-2,3-dihydro-1H-isoindol))-1R,3R-cyclohexanediamine))phenyl)-3-oxo-4-aza-5α-androst-1-ene-17β-carboxamide], the results for the IC50 with PC-3 cells, in the experiment with VCaP cells and with 22Rv1 cells were greater than 1000 nM, 10 to 1000 nM and greater than 1000 nM, respectively.

On to `C[C@]12C=CC(=O)N[C@@H]1CC[C@@H]1[C@@H]2CC[C@]2(C)[C@@H](C(=O)Nc3cccc(OCC4CCN(c5cccc6c5C(=O)N(C5CCC(=O)NC5=O)C6=O)CC4)c3)CC[C@@H]12` (stereo partly drawn) [C42, N-(3-((4-methyl-1-(4-(2-(3-(2,6-dioxopiperidine))-isoindole-1,3-dione))-piperidinyl)oxy)phenyl)-3-oxo-4-aza-5α-androst-1-ene-17β-carboxamide], for which the IC50 in the experiment on PC-3 cells, in the experiment with VCaP cells and in the experiment with 22Rv1 cells was greater than 1000 nM throughout.

With `CN(c1cccc(NC(=O)[C@H]2CC[C@H]3[C@@H]4CC[C@H]5NC(=O)C=C[C@]5(C)[C@H]4CC[C@]23C)c1)[C@@H]1CCC[C@@H](Nc2cccc3c2C(=O)N(C2CCC(=O)NC2=O)C3=O)C1` (stereo partly drawn) [C80, N-(3-(N—(N-methyl-N-(4-(2-(3-(2,6-dioxopiperidine))-isoindole-1,3-dione))-1R,3R-cyclohexanediamine))phenyl)-3-oxo-4-aza-5α-androst-1-ene-17β-carboxamide], the concentration for half-maximal inhibition (IC50) was 10 to 1000 nM in the experiment on PC-3 cells, 0.1 to 10 nM with VCaP cells and 0.1 to 10 nM in the experiment with 22Rv1 cells.

Consider `C[C@]12C=CC(=O)N[C@@H]1CC[C@@H]1[C@@H]2CC[C@]2(C)[C@@H](C(=O)Nc3ccc(OCCCCCNc4ccc5c(c4)C(=O)N(C4CCC(=O)NC4=O)C5=O)cc3)CC[C@@H]12` (stereo partly drawn) [C20, N-(4-((5-((5-(2-(3-(2,6-dioxopiperidine))-isoindole-1,3-dione))amino)pentyl)oxy)phenyl)-3-oxo-4-aza-5α-androst-1-ene-17β-carboxamide], for which the 50% inhibitory concentration (IC50) in the experiment with PC-3 cells, in the experiment with VCaP cells and in the experiment with 22Rv1 cells was greater than 1000 nM in each case.

On to `C[C@]12C=CC(=O)N[C@@H]1CC[C@@H]1[C@@H]2CC[C@]2(C)[C@@H](C(=O)Nc3cccc(OCCCNc4ccc5c(c4)C(=O)N(C4CCC(=O)NC4=O)C5=O)c3)CC[C@@H]12` (stereo partly drawn) [C30, N-(3-((3-((5-(2-(3-(2,6-dioxopiperidine))-isoindole-1,3-dione))amino)propyl)oxy)phenyl)-3-oxo-4-aza-5α-androst-1-ene-17β-carboxamide], for which the half-maximal inhibitory concentration (IC50) with PC-3 cells, with VCaP cells and in the experiment on 22Rv1 cells was greater than 1000 nM each time.

As for `C[C@]12C=CC(=O)N[C@@H]1CC[C@@H]1[C@@H]2CC[C@]2(C)[C@@H](C(=O)Nc3cccc(OCCCCNc4cccc5c4C(=O)N(C4CCC(=O)NC4=O)C5=O)c3)CC[C@@H]12` (stereo partly drawn) [C31, N-(3-((4-((4-(2-(3-(2,6-dioxopiperidine))-isoindole-1,3-dione))amino)butyl)oxy)phenyl)-3-oxo-4-aza-5α-androst-1-ene-17β-carboxamide], the half-inhibitory concentration (IC50) in the experiment with PC-3 cells, in the experiment on VCaP cells and in the experiment with 22Rv1 cells was greater than 1000 nM throughout.

For the compound `C[C@]12C=CC(=O)N[C@@H]1CC[C@@H]1[C@@H]2CC[C@]2(C)[C@@H](C(=O)Nc3cccc(OCCCNc4cccc5c4C(=O)N(C4CCC(=O)NC4=O)C5=O)c3)CC[C@@H]12` (stereo partly drawn) [C29, N-(3-((3-((4-(2-(3-(2,6-dioxopiperidine))-isoindole-1,3-dione))amino)propyl)oxy)phenyl)-3-oxo-4-aza-5α-androst-1-ene-17β-carboxamide], the results for the half-maximal inhibitory concentration (IC50) with PC-3 cells, in the experiment on VCaP cells and in the experiment on 22Rv1 cells were greater than 1000 nM, 0.1 to 10 nM and 0.1 to 10 nM, respectively. Further, the “Anti-proliferative toxicity data in VCaP cells” value with VCaP cells (0.00005 μM) turned out to be 0.4%; in the experiment with VCaP cells (0.00010 μM) it was 25.8%; in the experiment with VCaP cells (0.00030 μM), 40.3%; in the experiment on VCaP cells (0.00100 μM) it was 70.8%; in the experiment with VCaP cells (0.00300 μM), 80.1%; in the experiment on VCaP cells (0.00600 μM) it was 88.3%. The “Anti-proliferative toxicity data in VCaP cells” value in the experiment on VCaP cells (0.03200 μM) stood at 89.4%; in the experiment on VCaP cells (0.16000 μM), 90.0%. The “Anti-proliferative toxicity data in 22Rv1 cells” value with 22Rv1 cells (0.00006 μM) was determined as 0.2%; with 22Rv1 cells (0.00032 μM) it was 5.6%; in the experiment on 22Rv1 cells (0.00160 μM), 27.6%; in the experiment on 22Rv1 cells (0.00800 μM), 64.2%; in the experiment on 22Rv1 cells (0.04000 μM), 70.8%; in the experiment with 22Rv1 cells (0.20000 μM) it was 72.4%. The “Anti-proliferative toxicity data in 22Rv1 cells” value in the experiment on 22Rv1 cells (1.00000 μM) was 73.5%.

`C[C@]12C=CC(=O)N[C@@H]1CC[C@@H]1[C@@H]2CC[C@]2(C)[C@@H](C(=O)Nc3cccc(OCCCCNc4ccc5c(c4)C(=O)N(C4CCC(=O)NC4=O)C5=O)c3)CC[C@@H]12` (stereo partly drawn) [C32, N-(3-((4-((5-(2-(3-(2,6-dioxopiperidine))-isoindole-1,3-dione))amino)butyl)oxy)phenyl)-3-oxo-4-aza-5α-androst-1-ene-17β-carboxamide]: the IC50 in the experiment with PC-3 cells, in the experiment with VCaP cells and with 22Rv1 cells was greater than 1000 nM each time.

As to `C[C@]12C=CC(=O)N[C@@H]1CC[C@@H]1[C@@H]2CC[C@]2(C)[C@@H](C(=O)NCCCNc3cccc4c3C(=O)N(C3CCC(=O)NC3=O)C4=O)CC[C@@H]12` (stereo partly drawn) [C3, N-(3-((4-(2-(3-(2,6-dioxopiperidine))-isoindole-1,3-dione))amino)propyl)-3-oxo-4-aza-5α-androst-1-ene-17β-carboxamide], the IC50 in the experiment on PC-3 cells, in the experiment with VCaP cells and in the experiment with 22Rv1 cells was greater than 1000 nM throughout.

On to `C[C@]12C=CC(=O)N[C@@H]1CC[C@@H]1[C@@H]2CC[C@]2(C)[C@@H](C(=O)Nc3cccc(OCCCCCCNc4ccc5c(c4)C(=O)N(C4CCC(=O)NC4=O)C5=O)c3)CC[C@@H]12` (stereo partly drawn) [C36, N-(3-((6-((5-(2-(3-(2,6-dioxopiperidine))-isoindole-1,3-dione))amino)hexyl)oxy)phenyl)-3-oxo-4-aza-5α-androst-1-ene-17β-carboxamide], for which the IC50 with PC-3 cells, in the experiment with VCaP cells and in the experiment on 22Rv1 cells was greater than 1000 nM in each case.

As for `C[C@]12C=CC(=O)N[C@@H]1CC[C@@H]1[C@@H]2CC[C@]2(C)[C@@H](C(=O)NCCCCNc3ccc4c(c3)C(=O)N(C3CCC(=O)NC3=O)C4=O)CC[C@@H]12` (stereo partly drawn) [C6, N-(4-((5-(2-(3-(2,6-dioxopiperidine))-isoindole-1,3-dione))amino)butyl)-3-oxo-4-aza-5α-androst-1-ene-17β-carboxamide], the IC50 with PC-3 cells, with VCaP cells and with 22Rv1 cells was greater than 1000 nM each time.
